These results are taken from US7563818B2, “Photosensitizer functionalised nanoparticles” (Cancer Research Technology Limited, priority 2001, dated 2009).

For data set [1] the following is noted: cited from earlier work.
The nature of data set [2]: Fluorescence lifetime by time-correlated single photon counting. It is filed as physicochemical. An excerpt:
Fluorescence lifetime (τ) measurements were obtained by using the method of time-correlated single photon counting. For both the free and bound phthalocyanine optimum fits (X2) were obtained for the double exponential and τ1 and τ2 values are shown in table 1.

Data set [3] can be described thus: Solubility in polar solvents. Type of data set: physicochemical. The conditions noted are these: polar solvents (e.g. ethanol, methanol, DMSO). An excerpt:
Transmission electron micrographs of the Pc-gold nanoparticles are consistent with those reported by several groups for other thiol-stabilized MPCs in that they show small, 2-4 nm, non-aggregated particles—FIG. 2. […] A similar change in solubility was recently reported by Imahori et al.^23 for a porphyrin self-assembled on gold nanoparticles used as an artificial photosynthetic material.

Data set [4] is described as follows: Singlet oxygen quantum yield, method of Nonell and Braslavsky. Type of data set: physicochemical. The settings on record: for Increase in ΦΔ: addition of 1 mM TOAB to the free Pc. How it is done:
Singlet oxygen quantum yields, ΦΔ, for both the free and bound Pc were determined (Table 1) using the method of Nonell and Braslavsky.^24 The Pc coated nanoparticles were referenced to perinapthenone in ethanol (ΦΔ=0.97)^25, whilst free Pc was referenced to perinapthenone and octa-decyl zinc phthalocyanine^17 in toluene (ΦΔ=1.0 and 0.7 respectively). After deoxygenation of the Pc samples no singlet oxygen could be detected. […] The value of ΦΔ of 0.45 for the free Pc in toluene is consistent with previous measurements of similar metallated Pcs.^26

[5] abbreviates: double exponential fit, free Pc in toluene, Pc-nanoparticles in ethanol.
The mark [6] stands for this setting: in toluene with addition of 1 mM TOAB.

Read-outs that look alike come from different tables or passages of the source.

Regarding `O=C1C=Cc2cccc3cccc1c23` [perinapthenone], the “ΦΔ singlet oxygen quantum yield of reference” value was 0.97 in data set [1] (in ethanol) and 1.0 in data set [1] (in toluene).
`CCCCCCc1ccc(CCCCCC)c2c1-c1nc3nc(nc4[nH]c(nc5[nH]c(nc-2n1)c1c(CCCCCC)ccc(CCCCCC)c51)c1c(CCCCCC)ccc(CCCCCC)c41)-c1c(C)ccc(CCCCCCCCCCCS)c1-3` [Free Pc, 1,4,8, 11, 15, 18-hexahexyl-22-(11-mercaptoundecyl)-25-methyl phthalocyanine]: in data set [2] (setting [5]), the “τ1 (yield)” value was determined as 91%, the τ1 fluorescence lifetime stood at 2.1 ns, the “τ2 (yield)” value came to 9% and the τ2 fluorescence lifetime is reported as 1.11 ns. In addition, in data set [2] (setting [6]), the “τ1 (yield)” value was determined as 76%, the τ1 fluorescence lifetime is given as 0.7 ns, the “τ2 (yield)” value is reported as 24% and the τ2 fluorescence lifetime is given as 1.7 ns. Further, the “Solubility in polar solvents” value in data set [3] is “insoluble”. Besides, the “Increase in ΦΔ” value in data set [4] is “ca. 10%”. Moreover, the “Increase in ΦΔ” value in data set [4] (listed as free phthaloyanine) was “about 10%”. Besides, the “φΔ singlet oxygen quantum yield” value in data set [4] (free Pc in toluene, Pc-nanoparticles in ethanol, referenced to perinapthenone (and octa-decyl zinc phthalocyanine for free Pc)) came out at 0.45.
Consider octa-decyl zinc phthalocyanine, for which the “ΦΔ singlet oxygen quantum yield of reference” value in data set [1] (in toluene) is 0.7.
